From patent US20130287705A1, “METHOD OF TREATING MUCOSAL INFLAMMATION” (MCMASTER UNIVERSITY, priority 2010, published 2013)

Assays:
[1] = tested on: DSS and DNBS colitis; details: PCPA treated mice after induction of colitis; cited from earlier work
[2] = tested on: DSS-induced colitis; assay: DSS-induced colitis in mice treated with 5-HT7 antagonist; assay type: in vivo, C57BL/6 mice
[3] = tested on: dendritic cells; details: dendritic cells from TPH1-/- mice in DSS-colitis, stimulation with 5-HT; cited from earlier work
[4] = tested on: splenic dendritic cells; assay: Ex vivo culture of CD11c positive splenic DCs from bone-marrow reconstituted mice post-DSS; assay type: cell-based; details: LPS and serotonin vs LPS only
Description: Mice were sacrificed by cervical dislocation and spleens were excised and placed in Spleen Dissociation Medium (STEMCELL Technologies) and incubated for 30 min at room temperature. They were then strained through a 70-μm nylon mesh filter (BD Falcon) and washed with PBS supplemented with 2% fetal bovine serum (FBS) and 1 mmol/L EDTA. Splenic DCs were isolated using a CD11c^+ isolation kit (EasySep®, STEMCELL Technologies) according to the manufacturer's guidelines.
DCs isolated using CD11c positive selection were incubated at 1×10^6 cells per mL for 24 hours at 37° C. with or without 100 ng/mL LPS (Sigma-Aldrich) in RPMI 1640 supplemented with 10% FBS, 100 U/mL penicillin, 100 μg/mL streptomycin, and 50 μM 2-mercaptoethanol (Invitrogen Life Technologies). Supernatents were collected after 24 hours and analyzed for cytokine levels using ELISA kits for murine IL-12p40, IL-1β, and IL-6 (Quantikine Murine; R&D Systems, Minneapolis, Minn., USA).
6-8 week old male recipient C57BL/6 mice (Taconic) were irradiated with two doses of 5.5 Gy 48 hours apart administered via a ^137Cs γ-irradiation source (Gamma Cell 40; Nordian, Kanata, ON, Canada). Bone marrow cells (no fewer than 5×10^4) were harvested from femurs and tibiae of donor mice (5-HT7^+/+) and 5-HT7^−/− and given via tail vein injection to recipient mice within two hours of the second irradiation exposure. […]

Compound: NC(Cc1ccc(Cl)cc1)C(=O)O (racemic) [PCPA, para-chloro-D, L-phenylalanine]
- onset of colitis [1]: Delayed onset
- pro-inflammatory cytokine production [1]: down-regulation
- severity of colitis [1]: decreased severity

Compound: CC1CCN(CC[C@H]2CCCN2S(=O)(=O)c2cccc(O)c2)CC1.Cl [SB-269970, (2R)-1-[(3-Hydroxyphenyl)sulfonyl]-2-[2-(4-methyl-1-piperidinyl)ethyl]pyrrolidinehydrochloride]
- colitis severity (macroscopic damage) ([2]; 40 mg/kg i.p., day 5 post-DSS induction, compared to controls): significantly lower
- histological scores ([2]; 40 mg/kg i.p., day 5 post-DSS induction, compared to controls, FIG. 1C): significantly less severe
- myeloperoxidase (MPO) activity in colonic tissue ([2]; 40 mg/kg i.p., post-DSS, FIG. 2A): significantly lower
- production of IL-1β in colonic tissue ([2]; 40 mg/kg i.p., post-DSS, FIG. 2B): lower production
- production of TNF-α in colonic tissue ([2]; 40 mg/kg i.p., post-DSS, FIG. 2C): lower production
- production of IL-6 in colonic tissue ([2]; 40 mg/kg i.p., post-DSS, FIG. 2D): lower production
- Clinical disease activity scores (fecal blood and consistency, and weight loss) ([2]; 40 mg/kg intraperitoneally, days 4 and 5 post-DSS administration, vs vehicle (saline), FIG. 1A): significantly lower

Compound: NCCc1c[nH]c2ccc(O)cc12 [serotonin, 5-hydroxytryptamine]
- IL-12 production [3]: restored
- IL-1β production ([4]; DCs from mice reconstituted with wild-type BMC, FIG. 9): significantly up-regulated
- increase in IL-1β production ([4]; DCs from spleens of transgenic mice (5-HT7-/- BMC)): not seen
